Counter-ions that a name gives are not always drawn. Like-named read-outs stand apart in the source and are kept apart here.
Experiments:
OVCAR-4 = test: Cell viability of OVCAR-4 cells after treatment with test compound; format: cell-based
SKOV-3 cancer cell lines = test: Cell viability of SKOV-3 cancer cell lines after treatment with test compound; format: cell-based
Procedure: […] Cell viability is evaluated following treatment with a compound as disclosed in Table B. Viability of cancer cells following treatment is indicated according to the following legend:

[1] = Homo sapiens, SK-OV-3, SKOV-3 cancer cells

| Compound | IC50 (OVCAR-4; Homo sapiens) | IC50 (SKOV-3 cancer cell lines; [1]) | IC50 (OVCAR-4) | IC50 (SKOV-3 cancer cell lines; SKOV-3 cancer cells) |
| --- | --- | --- | --- | --- |
| CN[C@@H](C)C(=O)N[C@H]1CCS[C@H]2CC(C)(C)[C@@H](C(=O)N[C@@H]3CCSc4ccccc43)N2C1=O [Compound 2, (4S,7S)-8,8-dimethyl-4-((S)-2-(methylamino)propanamido)-5-oxo-N—((R)-thiochroman-4-yl)octahydropyrrolo[2,1-b][1,3]thiazepine-7-carboxamide hydrochloride] | 100 to 1000 nM | 1 to 10 nM | – | – |
| CN[C@@H](C)C(=O)N[C@H]1CCS[C@H]2CC3(CC=CC3)[C@@H](C(=O)N[C@@H]3CCSc4ccccc43)N2C1=O [Compound 4, (4′S,7′S,9a'S)-4′-((S)-2-(chloro(methyl)-15-azaneyl)propanamido)-5′-oxo-N—((R)-thiochroman-4-yl)-2′,3′,4′,5′,9′,9a′-hexahydro-7′H-spiro[cyclopentane-1,8′-pyrrolo[2,1-b][1,3]thiazepin]-3-ene-7′-carboxamide] | 100 to 1000 nM | 1 to 10 nM | – | – |
| CN[C@@H](C)C(=O)N[C@H]1CCS[C@H]2CC3(CC=CC3)[C@@H](C(=O)N[C@@H]3CCOc4ccccc43)N2C1=O [Compound 3, (4′S,7′S,9a'S)-4′-((S)-2-(chloro(methyl)-15-azaneyl)propanamido)-N—((R)-chroman-4-yl)-5′-oxo-2′,3′,4′,5′,9′,9a′-hexahydro-7′H-spiro[cyclopentane-1,8′-pyrrolo[2,1-b][1,3]thiazepin]-3-ene-7′-carboxamide] | 10 to 100 nM | 1 to 10 nM | – | – |
| CC[C@H](NC)C(=O)N[C@H]1CCSC2CC(C)(C)[C@@H](C(=O)N[C@@H]3CCOc4ccccc43)N2C1=O (stereo partly drawn) [Compound 8, (4S,7S)—N—((R)-chroman-4-yl)-8,8-dimethyl-4-((S)-2-(methylamino)butanamido)-5-oxooctahydropyrrolo[2,1-b][1,3]thiazepine-7-carboxamide hydrochloride] | 10 to 100 nM | 1 to 10 nM | – | – |
| CN[C@@H](C)C(=O)N[C@H]1CCS[C@H]2CC(C)(C)[C@@H](C(=O)N[C@@H]3CCOc4ccccc43)N2C1=O [Compound 1, (4S,7S)—N—((R)-chroman-4-yl)-8,8-dimethyl-4-((S)-2-(methylamino)propanamido)-5-oxooctahydropyrrolo[2,1-b][1,3]thiazepine-7-carboxamide hydrochloride] | 10 to 100 nM | 1 to 10 nM | – | – |
| CN[C@@H](C)C(=O)N[C@H]1CCS[C@H]2CC3(CCCC3)[C@@H](C(=O)N[C@@H]3CCOc4ccccc43)N2C1=O [Compound 5, (4′S,7′S,9a'S)-4′-((S)-2-(chloro(methyl)-15-azaneyl)propanamido)-N-(chroman-4-yl)-5′-oxohexahydro-7′H-spiro[cyclopentane-1,8′-pyrrolo[2,1-b][1,3]thiazepine]-7′-carboxamide] | 10 to 100 nM | 1 to 10 nM | – | – |
| CN[C@@H](C)C(=O)N[C@H]1CCS[C@H]2CC3(CC=CC3)[C@@H](C(=O)N[C@@H]3CCCc4ccccc43)N2C1=O [Compound 11, (4′S,7′S,9a'S)-4′-((S)-2-(chloro(methyl)-15-azaneyl)propanamido)-5′-oxo-N-(1,2,3,4-tetrahydronaphthalen-1-yl)-2′,3′,4′,5′,9′,9a′-hexahydro-7′H-spiro[cyclopentane-1,8′-pyrrolo[2,1-b][1,3]thiazepin]-3-ene-7′-carboxamide] | 10 to 100 nM | 1 to 10 nM | – | – |
| CN[C@@H](C)NC(=O)N[C@H]1CCSC2CC(C)(C)[C@@H](C(=O)N[C@@H]3CCOc4ccccc43)N2C1=O (stereo partly drawn) [Compound 7, (4S,7S)—N—((R)-chroman-4-yl)-8,8-dimethyl-4-(3-((R)-1-(methylamino)ethyl)ureido)-5-oxooctahydropyrrolo[2,1-b][1,3]thiazepine-7-carboxamide hydrochloride] | > 1000 nM | > 1000 nM | – | – |
| CN[C@@H](C)C(=O)N[C@H]1CCS[C@H]2CC3(CCCC3)[C@@H](C(=O)N[C@@H]3CCSc4ccccc43)N2C1=O [Compound 6, (4′S,7′S,9a'S)-4′-((S)-2-(chloro(methyl)-15-azaneyl)propanamido)-5′-oxo-N—((R)-thiochroman-4-yl)hexahydro-7′H-spiro[cyclopentane-1,8′-pyrrolo[2,1-b][1,3]thiazepine]-7′-carboxamide] | 100 to 1000 nM | 1 to 10 nM | – | – |
| CN[C@@H](C)C(=O)N[C@H]1CCO[C@H]2CC3(CC=CC3)[C@@H](C(=O)N[C@H]3CCOc4ccccc43)N2C1=O [Compound 12, (4′S,7′S,9a'S)-4′-((S)-2-(chloro(methyl)-15-azaneyl)propanamido)-N—((S)-chroman-4-yl)-5′-oxo-2′,3′,4′,5′,9′,9a′-hexahydro-7′H-spiro[cyclopentane-1,8′-pyrrolo[2,1-b][1,3]oxazepin]-3-ene-7′-carboxamide] | – | – | > 1000 nM | 100 to 1000 nM |
| CN[C@@H](C)C(=O)N[C@H]1CCO[C@H]2CC3(CCCC3)[C@@H](C(=O)N[C@@H]3CCOc4ccccc43)N2C1=O [Compound 9, (4′S,7′S,9a'S)-4′-((S)-2-(chloro(methyl)-16-azaneyl)propanamido)-N-(chroman-4-yl)-5′-oxohexahydro-7′H-spiro[cyclopentane-1,8′-pyrrolo[2,1-b][1,3]oxazepine]-7′-carboxamide] | 100 to 1000 nM | 1 to 10 nM | – | – |
| CC[C@H](NC)C(=O)N[C@H]1CCO[C@H]2CC3(CC=CC3)[C@@H](C(=O)N[C@@H]3CCOc4ccccc43)N2C1=O [Compound 13, (4′S,7′S,9a'S)-4′-((S)-2-(chloro(methyl)-16-azaneyl)butanamido)-N—((S)-chroman-4-yl)-5′-oxo-2′,3′,4′,5′,9′,9a′-hexahydro-7′H-spiro[cyclopentane-1,8′-pyrrolo[2,1-b][1,3]oxazepin]-3-ene-7′-carboxamide] | 100 to 1000 nM | 1 to 10 nM | – | – |
| CC[C@H](NC)C(=O)N[C@H]1CCO[C@H]2CC3(CCCC3)[C@@H](C(=O)N[C@@H]3CCOc4ccccc43)N2C1=O [Compound 10, (4′S,7′S,9a'S)-4′-((S)-2-(chloro(methyl)-16-azaneyl)butanamido)-N-(chroman-4-yl)-5′-oxohexahydro-7′H-spiro[cyclopentane-1,8′-pyrrolo[2,1-b][1,3]oxazepine]-7′-carboxamide] | 100 to 1000 nM | 1 to 10 nM | – | – |

— patent publication US20250129099A1, “INHIBITOR OF APOPTOSIS (IAP) PROTEIN ANTAGONISTS” (Sanford Burnham Prebys Medical Discovery Institute, priority 2021, published 2025)
